Where two headings read alike, the source gives them in different places.
Assays:
[1] = test system: coronary insufficiency caused by vasopressine; assay: antianginal effect on rats (vasopressine coronary insufficiency, Nieschulz); format: in vivo, rat; conditions: for ED50: Rattus norvegicus, read-out: ED50 (antianginal)
Protocol: The test was carried out by using rats weighing 180 to 220 g. The animals were narcotised by chloralose urethane (70 to 700 mg/kg ip.). The ECG alterations were registered in standard II lead with the aid of needle electrodes. The antianginal effect was measured with Nieschultz's method. The coronary insufficiency was caused by vasopressine (1 NE/kg, iv.). The size of the T-wave was measured before and after administration of vasopressine in both the control and test groups. The compounds of the invention were administered 2 minutes before the administration of vasopressine. (Nieschulz, O., Popendiker, K., Hoffmann, I.: Arzneimittel-Forschung 5, 680/1955/)

[2] = test system: aconitine-induced ECG alterations; assay: animal or person; format: in vivo, rat; conditions: Rattus norvegicus
Protocol: The test was carried out by using the modified method of Marmo et al. on rats weighing 160 to 200 g. The animals were narcotised by ethyl uretane (1.2 g/kg ip.). Aconitin was administered intravenously in a dose of 75 /ug/kg in the form of a bolus injection. The ECG alterations were monitored in standard II lead by 5 minutes after the administration of aconitine. The observed alterations were classified into classes 0 to 5. The compounds of the invention were administered 2 minutes or 60 minutes before the parenteral or oral administration of aconitine, respectively. […]
class 1: sometimes an extrasystole occurs class 2: each second one is an extrasystole class 3: extrasystoles in groups class 4: each one is an extrasystole class 5: fibrillation, death
(Marmo, E., DiGiacomo, S., Imperatore, A.: Arzeimittel-Forschung 20, 12/1970/)

[3] = acute toxicity test in mice (Litchfield and Wilcoxon); format: in vivo, mouse; conditions: mouse, in vivo, po., 14 days observation
Protocol: (§1) The test for acute toxicity was carried out by using 10 white mice (CFLP strain) (both male and female), weighing 18 to 22 g in each dose group. The compounds of the invention were administered orally in a dose of 20 ml/kg.
(§2) The animals were kept in a plastic box on wood chips in a room of room temperature. They could consume tap water and standard mouse feed ad libitum. The toxicity data were determined by the method of Litchfield and Wilcoxon (Litchfield, J. T., Wilcoxon, F. W.: J. Pharmacol. Exp. Ther. 96, 99/1949/).

[4] = test system: peristalty of stomach and intestines; assay: effect exerted on the peristalty of stomach and intestines (Stickney et al., carbon suspension); format: in vivo, mouse; conditions: po., mice; for ED50: Mus musculus, read-out: ED50 (antiperistaltic); for TI (therapeutic index): antiperistaltic
Protocol: The antiperistaltic effect of the compounds was examined by the method of Stickney et al. on white mice of both sexes, weighing 20 to 25 g. The compounds to be tested were administered per os 60 minutes before the addition of carbon suspension to groups containing 10 mice each. The animals of the control groups were treated at the same time and in the same manner with the carrier only. The mice were killed 10 minutes after the addition of the carbon suspension, and the whole length of the intestines as well as the length of the intestines filled with carbon suspension were measured.

gastric acid secretion = gastric acid secretion test (Shay); format: in vivo, rat; conditions: rats; for inhibition in vivo at 160 mg/kg: dose 160 mg/kg po.
Protocol: The test was carried out according to Shay's operational method. […] On the day of the test the pylorus of the animals was bound under ether narcosis. The test compounds were administered orally 3 hours before the operation. The animals of the control group were administered with the carrier only. 4 hours after the operation the stomach was removed, the content thereof was centrifuged and the amount of free acid was determined by titration with 0.1N sodium hydroxide.

hexobarbital narcosis = assay: narcosis potentiating effect (hexobarbital sleeping time); conditions: for ED50: Mus musculus, po, read-out: ED50 (narcosis potentiation); for TI (therapeutic index): narcosis potentiation
Protocol: The narcosis potentiating effect of the compounds of the invention were examined on white mice, with 6 animals in each group. The mice were administered orally with the compounds of the invention, then both the control and the test groups were intravenously added 40 mg/kg of hexobarbital in order to make the mice sleep (Kaergard et al.).

nervus ischiadicus = assay: local analgesic effect (Truant d'Amato's method); format: in vivo; conditions: for EC50 %: 0.2 ml injected around nervus ischiadicus; for Duration of effect: in a conc. of 0.5%
Protocol: The tests were carried out according to Truant d'Amato's method. 0.2 ml of test material was injected around the nervus ischiadicus in the middle of femur with a needle of 1 cm length. The criterion of analgesic effect was the lack of the motoric control of foot muscles.
The duration of effect was registered and the 50 percentile effective concentration (EC50) was calculated on the basis of the dose-effect curve. Lidocain was used as comparative material. (Truant, A. P., D'Amato, D.: Acta Chir Scand. 116, 351/1958/)

white mice (CFLP strain) = assay: acute toxicity test in mice (Litchfield and Wilcoxon); format: in vivo, mouse; conditions: po., 14 days observation
Protocol: as §1, §2

beta-adrenergic = conditions: background art; cited from earlier work
LD50 po. on rat = conditions: in vivo
[5] = iv., rats, vasopressine 1 NE/kg iv
[6] = iv, read-out: Effect % (antiarrhythmic)
[7] = Rattus norvegicus, read-out: Inhibition of free acid, %

`OC(CO/N=C1\CCCC\C1=C/c1ccccc1)CN1CCCCCC1` (racemic) [Example 10, R,S-2-(E)-Phenylmethylene-1-(E)-(3-hexamethylene-imino-2-hydroxypropoxyimino)-cyclohexane] showed an ED50 [1, 5] of 1.62 mg/kg, a change in vivo at 4 mg/kg [2, 6] of -47% and an LD50 at 336 h [3] of 900 mg/kg.

For `CN(C)CCCNCC(O)CO/N=C1\CCCC\C1=C/c1ccccc1` (racemic) [Example 11, R,S-2-(E)-Phenylmethylene-1-(E)-[3-(3-dimethylamino-1-propylamino)-2-hydroxy-propoxyimino]-cyclohexane], the ED50 [4] was 100 mg/kg, the “TI (therapeutic index)” value [4] was 10 and the inhibition in vivo at 200 mg/kg (gastric acid secretion; Rattus norvegicus, dose 200 mg/kg po., read-out: Inhibition of free acid, %) was 62%. It also gave an ED50 [1, 5] of 0.93 mg/kg and an LD50 at 336 h [3] of over 1000 mg/kg.

In the case of `CN1CCN(CC(O)CO/N=C2\CCCC\C2=C/c2c(Cl)cccc2Cl)CC1` (racemic) [Example 36, R,S-2-(E)-(2,6-Dichlorophenyl-methylene)-1-(E)-[3-(4-methyl-1-piperazinyl)-2-hydroxy-propoxyimino]-cyclohexane], the ED50 [4] is reported as about 100 mg/kg, the “TI (therapeutic index)” value [4] is reported as “about 7” and the ED50 [1, 5] is reported as 1.28 mg/kg. The LD50 at 336 h [3] was 700 mg/kg, the ED50 (hexobarbital narcosis) was 14 mg/kg and the “TI (therapeutic index)” value (hexobarbital narcosis; mice, po.) was 50.

In the case of `COc1ccc(/C=C2\CCCC\C2=N/OCC(O)CNC2CC2)cc1` (racemic) [Example 40, R,S-2-(E)-(4-Methoxyphenyl-methylene)-1-(E)-(3-cyclopropylamino-2-hydroxy-propoxyimino)-cyclohexane], the inhibition in vivo at 160 mg/kg (gastric acid secretion; [7]) is reported as 57%, the EC50 % (nervus ischiadicus) is reported as 0.19% and the Duration of effect (nervus ischiadicus) is reported as 68 min. The LD50 at 336 h [3] was 800 mg/kg.

For `CCCNCC(O)CO/N=C1\CCCCC\C1=C/c1ccc(OC)cc1` (racemic) [Example 43, R,S-2-(E)-(4'-Methoxyphenyl-methylene)-1-(E)-(3-propylamino-2-hydroxy-propoxyimino)-cycloheptane], the inhibition in vivo at 160 mg/kg (gastric acid secretion; [7]) was 32%, the ED50 [1, 5] was about 2 mg/kg and the LD50 at 336 h [3] was 800 mg/kg. For the same molecule, the ED50 (hexobarbital narcosis) was 50 mg/kg and the “TI (therapeutic index)” value (hexobarbital narcosis; mice, po.) was 16.

`CCN(CC)CC(O)CO/N=C1\CCCCC\C1=C/c1ccc(OC)cc1` (racemic) [Example 44, R,S-2-(E)-(4-Methoxyphenyl-methylene)-1-(E)-(3-diethylamino-2-hydroxy-propoxyimino)-cycloheptane] gave an ED50 [1, 5] of 1.93 mg/kg and an LD50 at 336 h [3] of 600 mg/kg.

For `CC(C)NCC(O)CO/N=C1\CCCCC1Cc1ccc(Cl)cc1` (racemic) [Example 47, R,S-2-(E)-(4-Chlorophenyl-methyl)-1-(E)-[3-(1-methylethyl-amino)-2-hydroxy-propoxyimino]-cyclohexane], the ED50 [1, 5] was 1.29 mg/kg, the EC50 % (nervus ischiadicus) was 0.18% and the Duration of effect (nervus ischiadicus) was 93 min. For the same molecule, the LD50 at 336 h [3] was 700 mg/kg.

Molecule `CC(C)NCC(O)CO/N=C1\CCCCCC\C1=C/c1ccccc1` (racemic) [Example 48, R,S-2-(E)-Phenylmethylene-1-(E)-[3-(1-methylethyl-amino)-2-hydroxypropxyimino]-cyclooctane] has an inhibition in vivo at 100 mg/kg (gastric acid secretion; Rattus norvegicus, dose 100 mg/kg po., read-out: Inhibition of free acid, %) of 75%, an EC50 % (nervus ischiadicus) of 0.31% and a Duration of effect (nervus ischiadicus) of 122 min. The change in vivo at 4 mg/kg [2, 6] was -43.5% and the LD50 at 336 h [3] was over 1000 mg/kg.

Work on `CCCN(CCC)CC(O)CO/N=C1\CCCCC\C1=C/c1ccc(OC)cc1` (racemic) [Example 51, R,S-2-(E)-(4-Methoxyphenyl-methylene)-1-(E)-(3-dipropylamino-2-hydroxy-propoxyimino)-cycloheptane] yielded an ED50 [1, 5] of 0.43 mg/kg, an EC50 % (nervus ischiadicus) of 0.28% and a Duration of effect (nervus ischiadicus) of 103 min. For the same molecule, the LD50 at 336 h [3] was 100 to 500 mg/kg.

`OC(CO/N=C1\CCCC\C1=C/c1ccccc1)CN1CC=C(c2ccccc2)CC1` (racemic) [Example 55, R,S-2-(E)-Phenylmethylene-1-(E)-[3-(4-phenyl-1,2,3,6-tetrahydro)-1-pyridinyl]-2-hydroxy-propoxyimino-cyclohexane] gave an ED50 ([1]; iv) of 1.77 mg/kg and an LD50 at 336 h [3] of over 1000 mg/kg.

Molecule `CC(C)CNCC(O)CON=C1CCCCC1=Cc1cccc(Cl)c1` (stereo not drawn) [Example 25, R,S-2-(E)-3-Chlorophenylmethylene-1-(E)-[3-(2-methylpropyl-amino)-2-hydroxy-propoxyimino]-cyclohexane] has an LD50 (white mice (CFLP strain)) of 900 mg/kg.

For `CC(C)NCC(O)CO/N=C1\CCCC\C1=C/c1ccc(Cl)cc1` (stereo not drawn) [Example 26, R,S-2-(E)-(4-Chlorophenyl-methylene)-1-(E)-[3-(1-methylethylamino)-2'-hydroxy-propoxyimino]-cyclohexane], the “Inhibition of free acid, %” value (gastric acid secretion; dose 100 mg/kg po.) was 66%, the “Inhibition of free acid, %” value (gastric acid secretion; dose 200 mg/kg po.) was 92% and the “ED50 (antianginal)” value [1, 5] was “about 2.0 mg/kg”. The EC50 % (nervus ischiadicus) was 0.22%, the Duration of effect (nervus ischiadicus) was 49 min and the LD50 (white mice (CFLP strain)) was “more than 1000 mg/kg”. For the same molecule, the “TI (therapeutic index)” value (hexobarbital narcosis; mice, po.) was over 7 and the “ED50 (narcosis potentiation)” value (hexobarbital narcosis; po., mice, hexobarbital 40 mg/kg iv) was 140 mg/kg.

In the case of `CCCNCC(O)CO/N=C1\CCCC\C1=C/c1ccc(Cl)cc1` (stereo not drawn) [Example 46, R,S-2-(E)-(4-Chlorophenyl-methylene)-1-(E)-(3-propylamino-2-hydroxypropoxyimino)-cyclohexane], the EC50 % (nervus ischiadicus) is reported as 0.19%, the Duration of effect (nervus ischiadicus) is reported as 81 min and the LD50 (white mice (CFLP strain)) is reported as “more than 1000 mg/kg”.

For `CC(=NOCC(O)CNC(C)(C)C)C1CC1` (stereo not drawn) [Falintolol], the beta-adrenergic blocking effect (beta-adrenergic) is listed as “exhibits beta-adrenergic blocking activity”.

For `CC(C)(C)NCC(O)CON=C1c2ccccc2-c2ccccc21` (stereo not drawn) [IPS-339], the beta-adrenergic blocking effect (beta-adrenergic) is listed as “exhibits beta-adrenergic blocking effect”.

With `CC(Cc1ccccc1)NCCC(c1ccccc1)c1ccccc1` (stereo not drawn) [Prenilamine, reference compound] the ED50 ([1]; iv) was 6.5 mg/kg.

In the case of `C=C[C@H]1C[N@@]2CC[C@H]1C[C@@H]2[C@@H](O)c1ccnc2ccc(OC)cc12` [Quinidine, reference compound], the LD50 (LD50 po. on rat) is reported as 1130 mg/kg, the ED50 ([2]; iv, read-out: ED50 iv. (antiarrhythmic)) is reported as 9.85 mg/kg and the change in vivo at 4 mg/kg [2, 6] is reported as -29%. It also gave an ED50 ([2]; po, read-out: ED50 (antiarrhythmic, per os)) of about 100 mg/kg and a change in vivo at 100 mg/kg ([2]; po, read-out: Effect % (antiarrhythmic)) of -52%.

With “R,S-2-(E)-Chlorophenylmethylene-1-(E)-[3-(4-phenyl-1-piperazinyl)-2-hydroxy-propoxyimino]-cyclohexane [Example 24]” the “TI (therapeutic index)” value [4] was “about 7”, the “ED50 (antiperistaltic)” value [4] was “about 150 mg/kg” and the LD50 (white mice (CFLP strain)) was “more than 1000 mg/kg”.
